Where “and” joins values, the source holds several entries; their conditions need not be identical. Equal entries are not always repeated.
Assays:
N. fowleri CYP51 [1] = target: T1, N. fowleri CYP51 (Naegleria fowleri, UniProt A0A6A5BCR7, E4K/I5A/S2A, form not given); assay type: binding; settings: Type I spectral response, ~2 μM P450
N. fowleri CYP51 [2] = target: T1, N. fowleri CYP51; assay type: biochemical; settings: 0.5 μM P450, 60 s at 37 °C, sterol 3–50 μM
N. fowleri trophozoites = test: N. fowleri cellular growth inhibition assay; assay type: cell-based; settings: Naegleria fowleri, 96 h, read-out: minimal inhibitory concentration (MIC)
[3] = cited from earlier work
[4] = Blood–brain permeability assay, multiple oral doses; assay type: in vivo, BALB/c mice; settings: mice, oral gavage 25 mg/kg twice a day for 5 days, samples 4 h after each administration
N. fowleri CYP51 [5] = target: T1, N. fowleri CYP51

SMILES | low- to high-spin state transition in the heme iron (N. fowleri CYP51 [1]) [%] | concentration giving complete inhibition of N. fowleri CYP51 activity (N. fowleri CYP51 [5]) [µM] | also measured
CC(C)=CCC[C@@H](C)[C@H]1CC[C@@]2(C)C3=C(CC[C@]12C)[C@@]1(C)CC[C@H](O)[C@H](C)[C@@H]1CC3 [norlanosterol] | 94 | – | –
CC(C)=CCC[C@@H](C)[C@H]1CC[C@@]2(C)C3=C(CC[C@]12C)[C@@]1(C)CC[C@H](O)C(C)(C)[C@@H]1CC3 [lanosterol] | 70 | – | kcat (N. fowleri CYP51 [2]): 1.07 s⁻¹
O=C(N[C@@H](Cn1ccnc1)c1c(F)cc(-c2ccc(F)cc2)cc1F)c1ccc(-c2nnc(-c3ccccc3)o2)cc1 [F-VFV, (R)-N-(2-(1H-imidazol-1-yl)-1-(3,4’,5-trifluoro-[1,1’-biphenyl]-4-yl)ethyl)-4-(5-phenyl-1,3,4-oxadiazol-2-yl)benzamide] | – | 3.0 | MIC (N. fowleri trophozoites): 3.3 µM and 1.9 µg/mL; NOAEL [3]: > 200 mg/kg; average concentration in the brain [4]: 2.2 ± 0.2 µM
O=C(N[C@@H](Cn1ccnc1)c1ccc(Cl)cc1Cl)c1ccc(-c2nnc(-c3ccc(F)c(F)c3)o2)cc1 [FF-VNI, (R)-N-(1-(2,4-dichlorophenyl)-2-(1H-imidazol-1-yl)-ethyl)-4-(5-(3,4-difluorophenyl)-1,3,4-oxadiazol-2-yl)-benzamide] | – | 6 | MIC (N. fowleri trophozoites): 2.7 µM and 1.5 µg/mL; NOAEL [3]: > 200 mg/kg; average concentration in the brain [4]: 3.5 ± 0.3 µM
O=C(N[C@@H](Cn1ccnc1)c1ccc(Cl)cc1Cl)c1ccc(-c2nnc(-c3ccccc3)o2)cc1 [VNI, (R)-N-(1-(2,4-dichlorophenyl)-2-(1H-imidazol-1-yl)-ethyl)-4-(5-phenyl-1,3,4-oxadiazol-2-yl)benzamide] | – | 50 | –
O=C(N[C@@H](Cn1ccnc1)c1ccc(-c2ccc(F)cc2)cc1F)c1ccc(-c2nnc(-c3ccccc3)o2)cc1 [VFV, (R)-N-(1-(3,4’-difluoro-[1,1’-biphenyl]-4-yl)-2-(1H-imidazol-1-yl)-ethyl)-4-(5-phenyl-1,3,4-oxadiazol-2-yl)benzamide] | – | 6.0 | –
C=C(CC[C@@H](C)[C@H]1CC[C@@]2(C)C3=C(CC[C@]12C)[C@@]1(C)CC[C@H](O)[C@@H](C)[C@@H]1CC3)C(C)C [obtusifoliol] | 90 | – | kcat (N. fowleri CYP51 [2]): 0.433 s⁻¹
CC(C)=CCC[C@@H](C)[C@H]1CC[C@@]2(C)[C@@H]3CC[C@H]4C(C)(C)[C@@H](O)CC[C@@]45C[C@@]35CC[C@]12C [cycloartenol] | 25 | – | –
CC[C@@H]([C@H](C)O)n1ncn(-c2ccc(N3CCN(c4ccc(OC[C@@H]5CO[C@@](Cn6cncn6)(c6ccc(F)cc6F)C5)cc4)CC3)cc2)c1=O [posaconazole, reference compound] | – | 2.0 | –
O=C(N[C@@H](Cn1ccnc1)c1ccc(Cl)cc1Cl)c1ccc(-c2nnc(-c3ccc(C(F)(F)F)c(F)c3)o2)cc1 [FCF3-VNI, (R)-N-(1-(2,4-dichlorophenyl)-2-(1H-imidazol-1-yl)ethyl)-4-(5-(3-fluoro-4-(trifluoromethyl)phenyl)-1,3,4-oxadiazol-2-yl)benzamide] | – | > 50 | –

Reference: paper PMC8667612 (Journal of medicinal chemistry, 2021)
